According to ChEMBL document CHEMBL1201862, “PubChem BioAssay data set” (2004):
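Five concentrations, 48 hours, 96-well plates. GI50 marks 50% less growth.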 The source made the active and inactive calls. Rule as the data show it: active = GI50 up to about 1.1 µM and inactive = higher.

Legend:
Assay in all cases: DTP human tumour cell line panel, 48 h
SK-OV-3 = system: SK-OV-3
HT-29 = system: HT-29
Hs-578T = system: Hs-578T
HL-60 = system: HL-60
U-251 = system: U-251
SF-295 = system: SF-295
NCI-H226 = system: NCI-H226
CAKI-1 = system: CAKI-1
UACC-62 = system: UACC-62
LOX IMVI = system: LOX IMVI
EKVX = system: EKVX
TK-10 = system: TK-10
DU-145 = system: DU-145
NCI-H460 = system: NCI-H460
MOLT-4 = system: MOLT-4
MDA-N = system: MDA-N
786-0 = system: 786-0
T47D = system: T47D
MCF7 = system: MCF7
SN12C = system: SN12C

Compound	GI50 (SK-OV-3)	GI50 (HT-29)	GI50 (Hs-578T)	GI50 (HL-60)	GI50 (U-251)	GI50 (SF-295)	GI50 (NCI-H226)	GI50 (CAKI-1)	GI50 (UACC-62)	GI50 (LOX IMVI)	GI50 (EKVX)	GI50 (TK-10)	GI50 (DU-145)	GI50 (NCI-H460)	GI50 (MOLT-4)	GI50 (MDA-N)	GI50 (786-0)	GI50 (T47D)	GI50 (MCF7)	GI50 (SN12C)
C1=C(c2ccccc2)NC2=N[C@H]3CCCC[C@@H]3N2C1c1ccccc1 (some centres not stated)	15.8 µM (inactive)	3.51 µM (inactive)	17.2 µM (inactive)	10.3 µM (inactive)	13.4 µM (inactive)	13 µM (inactive)	13.4 µM (inactive)	16.1 µM (inactive)	15 µM (inactive)	15.3 µM (inactive)	14.4 µM (inactive)	10.4 µM (inactive)	16.1 µM (inactive)	11 µM (inactive)	7.74 µM (inactive)	15.5 µM (inactive)	16.9 µM (inactive)	16.4 µM (inactive)		
CCN1CC2(C)CCC(OC)C34C5CC6CCC(O)(C5C(=O)O6)C(C(O)C23)C14 (configuration not stated)	> 100 µM (inactive)	> 100 µM (inactive)	> 100 µM (inactive)	> 100 µM (inactive)	> 100 µM (inactive)	> 100 µM (inactive)		> 100 µM (inactive)	> 100 µM (inactive)	> 100 µM (inactive)	> 100 µM (inactive)	> 100 µM (inactive)	> 100 µM (inactive)	> 100 µM (inactive)	> 100 µM (inactive)	> 100 µM (inactive)	> 100 µM (inactive)	> 100 µM (inactive)	> 100 µM (inactive)	
CN1CCN(C(=S)N(C(=O)c2ccco2)c2ccccc2)CC1		> 100 µM (inactive)	> 100 µM (inactive)	> 100 µM (inactive)	> 100 µM (inactive)	> 100 µM (inactive)	> 100 µM (inactive)		> 100 µM (inactive)	> 100 µM (inactive)		> 100 µM (inactive)	> 100 µM (inactive)	> 100 µM (inactive)	> 100 µM (inactive)	> 100 µM (inactive)	> 100 µM (inactive)	> 100 µM (inactive)	> 100 µM (inactive)	> 100 µM (inactive)
COC(=O)[C@@]12C(=O)C(C)C(=O)[C@]1(C)C(C)=C[C@H]1[C@]3(C=O)CC[C@H](OC(C)=O)C(C)(C)[C@H]3CC[C@@]12C (some centres not stated)	> 100 µM (inactive)	> 100 µM (inactive)	> 100 µM (inactive)	17.7 µM (inactive)	> 100 µM (inactive)	> 100 µM (inactive)	> 100 µM (inactive)	93.1 µM (inactive)	> 100 µM (inactive)	70.6 µM (inactive)	> 100 µM (inactive)	> 100 µM (inactive)	> 100 µM (inactive)	> 100 µM (inactive)	11.9 µM (inactive)	> 100 µM (inactive)	> 100 µM (inactive)	> 100 µM (inactive)		
O=c1[nH]c(=O)n(COCCO)cc1-c1ccccc1	> 100 µM (inactive)	> 100 µM (inactive)	> 100 µM (inactive)	> 100 µM (inactive)	> 100 µM (inactive)	> 100 µM (inactive)		> 100 µM (inactive)	> 100 µM (inactive)	> 100 µM (inactive)	> 100 µM (inactive)	> 100 µM (inactive)	> 100 µM (inactive)	> 100 µM (inactive)	> 100 µM (inactive)	> 100 µM (inactive)	> 100 µM (inactive)	> 100 µM (inactive)	> 100 µM (inactive)	> 100 µM (inactive)
COc1cc(/C=C2\C[C@H]3[C@@H]4CC=C5C[C@@H](N6CCCC6)CC[C@]5(C)[C@H]4CC[C@]3(C)[C@H]2OC(C)=O)cc(OC)c1OC	15.3 µM (inactive)	10 µM (inactive)	17.8 µM (inactive)	21.9 µM (inactive)	15.8 µM (inactive)	12.8 µM (inactive)	24.8 µM (inactive)	17 µM (inactive)	17.5 µM (inactive)		14.3 µM (inactive)	20.6 µM (inactive)	17.3 µM (inactive)		6.38 µM (inactive)	10.9 µM (inactive)	11.3 µM (inactive)	20.3 µM (inactive)	15.9 µM (inactive)	14 µM (inactive)
CN(CCCNC(=O)c1cn(C)c2c1ccc1cc(Cl)ccc12)CCCNC(=O)c1cn(C)c2c1ccc1cc(Cl)ccc12	1.82 µM (inactive)	2.05 µM (inactive)	1.83 µM (inactive)	0.914 µM (active)	1.71 µM (inactive)	2 µM (inactive)	20.6 µM (inactive)	2.3 µM (inactive)	1.84 µM (inactive)	1.64 µM (inactive)	2.33 µM (inactive)	2.47 µM (inactive)	1.89 µM (inactive)	1.56 µM (inactive)	1.73 µM (inactive)	2.23 µM (inactive)	1.65 µM (inactive)	1.8 µM (inactive)		1.87 µM (inactive)
